US20260325464A1, “COMPOSITIONS FOR MODULATING THE EXPRESSION OF AQUAPORINS IN NEURODEGENERATIVE DISORDERS” (priority 2023, published 2026)

Tests used:
Fibrinogen = experiment: Inflammatory marker fibrinogen (ELISA), AlCl3 Alzheimer's model; type: in vivo, rat; settings: for Fibrinogen: p.o. + AlCl3 (100 mg/kg, i.p.), Mean ± SEM, n = 6
Excerpt: The inflammatory markers Fibrinogen, IL-1β were estimated using ELISA kit (Krishgen Biosystems, India).

Parkinson's disease = experiment: Catalepsy test in rats with reserpine-induced Parkinson's disease; type: in vivo, rat; set-up: catalepsy score at 30 min / catalepsy score at 60 min / catalepsy score at 120 min: unit not given here; settings: for catalepsy score at 30 min / catalepsy score at 60 min / catalepsy score at 120 min: p.o. + Reserpine (4 mg/kg, s.c.), Mean ± SEM, n = 6
Excerpt: The induction of Parkinson's disease and measurement of other parameters were done as per the reported protocol (Santos et al., Cognitive, motor and tyrosine hydroxylase temporal impairment in a model of parkinsonism induced by reserpine. Behav Brain Res. 2013; 253:68-77 and Shishehbore et al. A novel kinetic spectrophotometric method for the determination of dopamine in biological and pharmaceutical samples. J Chem. 2013; 2013:1-6). Induction of Parkinson's disease was done by administering Resperine, which inhibits the monoamine vesicular transporters, thus decreasing the levels of monoamine neurotransmitters in the brain. Following pretreatment for 14 days with Gingerenone A, the rat groups received subcutaneous injections of reserpine (4 mg/kg) for the final five days of the treatment regimen. Resperine (5 mg) was dissolved in 1 ml of 1% acetic acid and then diluted tenfold with distilled water to achieve a final concentration of 500 μg/ml. The normal control group received saline with 1% acetic acid […], administered from day 10 to day 14. Thirty minutes following the administration of reserpine on the 14th day, behavioural assessments were conducted using the Open Field test, Y Maze, and Catalepsy tests to evaluate changes. Rats administered with Carbidopa, a known drug for the management of Parkinson's disease was also used for comparison. Upon completion of the study, brains were harvested for biochemical analyses and histopathological studies. The experimental group is depicted in table 10.
NeuroMol Med. 202022(2):314-330. Catalepsy in rats' manifests as an unresponsiveness to external stimuli accompanied by muscle rigidity. During the catalepsy test, rats were positioned on a wooden bar elevated 3-9 cm above the surface, with their forelimbs resting on it after administration of reserpine. The time taken for the rats to correct their posture was recorded as an indicator of catalepsy. Catalepsy ceased either when the rats climbed up the bar or when their forelimbs touched the floor. Observations were made at 30, 60, and 120 minutes after administration. All assessments were conducted in a quiet environment at a temperature of 23-25 degrees Celsius, with a maximum observation time of 5 minutes per trial.

COc1cc(CC/C=C/C(=O)CCc2ccc(O)c(OC)c2)ccc1O [Gingerenone A]
Fibrinogen (Fibrinogen; 5 mg/kg): 22.80 ± 0.738 ng/mL | Fibrinogen (Fibrinogen; 10 mg/kg): 19.05 ± 0.232 ng/mL | Fibrinogen (Fibrinogen; 20 mg/kg): 16.65 ± 0.431 ng/mL | fibrinogen (in words) (Fibrinogen; AlCl3 model, Table 9): significantly reduced | catalepsy score at 30 min (Parkinson's disease; 5 mg/kg): 2.46 ± 0.15 | catalepsy score at 60 min (Parkinson's disease; 5 mg/kg): 2.52 ± 0.54 | catalepsy score at 120 min (Parkinson's disease; 5 mg/kg): 2.43 ± 0.70 | catalepsy score at 30 min (Parkinson's disease; 10 mg/kg): 1.76 ± 0.11 | catalepsy score at 60 min (Parkinson's disease; 10 mg/kg): 1.72 ± 0.73 | catalepsy score at 120 min (Parkinson's disease; 10 mg/kg): 1.71 ± 0.75 | catalepsy score at 30 min (Parkinson's disease; 20 mg/kg): 1.58 ± 0.16 | catalepsy score at 60 min (Parkinson's disease; 20 mg/kg): 1.55 ± 0.32 | catalepsy score at 120 min (Parkinson's disease; 20 mg/kg): 1.50 ± 0.82 | muscle rigidity in catalepsy test (in words) (Parkinson's disease; reserpine model, Table 13): significantly improved muscle rigidity
